Patent publication US10563204B2, “Methods of treating cancer harboring hemizygous loss of TP53” (priority 2015, dated 2020)
≈ marks a conversion by molar mass, not a printed value. Numbered stars: 1 amine (or outer) side, 2 acyl side, 3 side chain; on linkers, the order of the positions; unused ones are H or OH. Bridge positions count the residues as written; N and C are the ends. Square brackets hold non-standard residues; d marks the D form. Peptide text beside a SMILES is read from it. I, II: the chains in the order shown. Actinocin(9to1) = Cc1c2oc3c(C)ccc(C(=O)[*:1])c3nc-2c(C(=O)[*:2])c(N)c1=O; NMeV = CN[C@H](C(=O)O)C(C)C; Sar = CNCC(=O)O

Columns and labels:
[1] = tested on: POLR2A^loss cells (SW837, SNU283); test: Cell proliferation and survival assay, POLR2A^loss colorectal cancer cells; type: cell-based, human
Procedure: (§1) Equal numbers of cells were plated in 12-well plates in triplicate. Cells were fixed with 10% methanol and stained with 0.1% crystal violet (dissolved in 10% methanol) at indicated times. After staining, wells were washed three times with PBS and destained with acetic acid. The absorbance of the crystal violet solution was measured at 590 nm. For cell survival assay, cells were seeded at a concentration of 1,000 cells per well in 96-well plates and treated with indicated concentrations of α-Amanitin or actinomycin D 24 hours later. Cell viability was quantified using WST-1 reagent (Roche) according to the manufacturer's instructions. All experiments were performed in triplicate.

[2] = tested on: POLR2A^loss HCT116 cells; test: Cell proliferation and survival assay, isogenic HCT116 cells with hemizygous loss of POLR2A (CRISPR/Cas9); type: cell-based, human
Procedure: as §1
To exclude the effects of various genetic backgrounds across cell lines, the CRISPR (clustered regularly interspaced short palindromic repeat)/Cas9 system was employed to generate an isogenic HCT116 cell line with hemizygous loss of POLR2A (Wang et al., 2014; Wang et al., 2013). Two single-guide RNAs (sgRNAs) were designed to target the second exon of the POLR2A gene (FIG. 9A). Both of them efficiently targeted and disrupted the POLR2A gene, as shown in the Surveyor analysis (FIG. 9B). Single colonies of HCT116 cells bearing mono-allelic deletion of POLR2A were selected and verified by DNA sequencing (FIG. 9C). Small deletion in the targeted region led to open reading frame shift, producing only a short stretch of the N-terminal peptide without all functional domains of POLR2A. […] However, hemizygous deletion of POLR2A dramatically sensitized HCT116 cells to α-Amanitin treatment with an IC50 of ˜0.1 μg ml^−1, which is 8-fold lower than that of parental HCT116 cells (FIGS. 2G and 2H). […] POLR2A^loss and POLR2A^neutral HCT116 cells expressing Dox-inducible POLR2A shRNA were also generated. […] While a low-dose of Dox (100 ng ml^−1) was sufficient to remarkably kill the POLR2A^loss cells, high doses of Dox only had minimal effects on the POLR2A^neutral cells (FIGS. 2I, 2J, and 9H).

[3] = tested on: POLR2A^neutral cells (HCT116, SW480); test: Cell proliferation and survival assay, POLR2A^neutral colorectal cancer cells; type: cell-based, human
Procedure: as §1

[4] = tested on: xhCRC and HCT116 cells; test: Sensitivity of isogenic xhCRC and HCT116 cells (TP53 / POLR2A hemizygous deletion) to α-Amanitin; type: cell-based, human
Procedure: as §1
(§2) Blockage of RNA polymerase may lead to p53 accumulation and activation (Derheimer et al., 2007). To examine the effects of p53 on cell response to POLR2A inhibition, the concomitant deletion of TP53 and POLR2A was recapitulated in HCT116 and xhCRC cell lines (FIGS. 3A and 10A-10C). […] The RNA polymerase II is in charge of mRNA synthesis, an essential function for any type of cells including therapy-resistant tumor cells. The drug sensitivity of POLR2A^neutral and POLR2A^loss cells to three major chemotherapy drugs for colorectal cancer (5-fluorouracil (5-FU), oxaliplatin, and SN-38) was examined. […]

[5] = tested on: POLR2A^loss xhCRC cells; type: cell-based, human; conditions: α-Amanitin combined with each of the three drugs
Procedure: as §1, §2

[6] = tested on: POLR2A^neutral xhCRC cells; type: cell-based, human; conditions: α-Amanitin combined with each of the three drugs
Procedure: as §1, §2

[7] = molecular target: OATP1B3 (Homo sapiens, UniProt Q9NPD5); conditions: free α-Amanitin; transporter on hepatocyte membrane; cited from earlier work
[8] = free α-Amanitin; cited from earlier work

Chain of OATP1B3 (Q9NPD5 whole entry): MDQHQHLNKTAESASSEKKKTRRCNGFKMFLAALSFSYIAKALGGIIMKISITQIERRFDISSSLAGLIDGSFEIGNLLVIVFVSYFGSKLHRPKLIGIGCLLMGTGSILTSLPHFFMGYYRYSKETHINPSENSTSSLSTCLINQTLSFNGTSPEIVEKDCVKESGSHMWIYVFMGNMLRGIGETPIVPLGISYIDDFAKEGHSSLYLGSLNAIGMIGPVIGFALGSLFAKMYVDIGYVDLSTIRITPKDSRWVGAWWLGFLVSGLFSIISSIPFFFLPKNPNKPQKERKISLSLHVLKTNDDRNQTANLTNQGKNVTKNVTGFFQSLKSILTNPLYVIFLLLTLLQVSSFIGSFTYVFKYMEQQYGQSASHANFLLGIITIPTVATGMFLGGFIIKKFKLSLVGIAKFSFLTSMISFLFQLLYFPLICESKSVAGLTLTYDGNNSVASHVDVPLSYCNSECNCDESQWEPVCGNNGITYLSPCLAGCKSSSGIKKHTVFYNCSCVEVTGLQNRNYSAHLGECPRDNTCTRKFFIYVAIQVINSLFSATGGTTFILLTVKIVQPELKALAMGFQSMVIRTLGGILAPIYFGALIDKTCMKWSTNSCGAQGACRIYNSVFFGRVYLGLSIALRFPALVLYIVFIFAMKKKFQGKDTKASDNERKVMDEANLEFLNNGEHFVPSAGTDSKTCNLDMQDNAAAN

| SMILES | sensitivity compared with POLR2A^neutral cells ([1]; actinomycin D treatment) | difference in sensitivity between POLR2A^loss and POLR2A^neutral HCT116 cells ([2]; actinomycin D) | half-maximum inhibitory concentration (IC50) ([3]; POLR2A^neutral cells (HCT116, SW480)) [µg/mL] | cell growth / cell death at high concentrations ([3]; ≥1 μg ml^−1, HCT116, SW480) | resistance to α-Amanitin after re-expression of exogenous POLR2A ([1]; SNU283 and SW837 re-expressing exogenous POLR2A, level comparable to HCT116 and SW480) | cell-killing effect compared with POLR2A^neutral cells ([1]; concentrations from 0 to 1.0 μg ml^−1) | IC50 of POLR2A^neutral cells relative to that of POLR2A^loss cells ([1]; neutral (HCT116, SW480) vs loss (SW837, SNU283)) [fold] | cell growth / cell death at high concentrations ([1]; ≥1 μg ml^−1, SW837, SNU283) | IC50 ([2]; HCT116 with hemizygous deletion of POLR2A) [µg/mL] | IC50 lower than that of parental HCT116 cells ([2]; POLR2A^loss vs parental HCT116) [fold] | change in sensitivity to α-Amanitin ([4]; cells with hemizygous deletion of TP53) | change in sensitivity to α-Amanitin ([4]; cells with hemizygous loss of POLR2A, regardless of TP53 status) | effect on cell killing by 5-FU, oxaliplatin and SN-38 [5] | effect on cell killing by 5-FU, oxaliplatin and SN-38 [6] | binding by OATP1B3 [7] | liver toxicity [8] |
| --- | --- | --- | --- | --- | --- | --- | --- | --- | --- | --- | --- | --- | --- | --- | --- | --- |
| Cc1c2oc3c(C)ccc(C(=O)N[C@@H]4C(=O)N[C@H](C(C)C)C(=O)N5CCC[C@H]5C(=O)N(C)CC(=O)N(C)[C@@H](C(C)C)C(=O)O[C@@H]4C)c3nc-2c(C(=O)N[C@@H]2C(=O)N[C@H](C(C)C)C(=O)N3CCC[C@H]3C(=O)N(C)CC(=O)N(C)[C@@H](C(C)C)C(=O)O[C@@H]2C)c(N)c1=O [actinomycin D] (I: T[dV]P[Sar][NMeV] / II: T[dV]P[Sar][NMeV]; ester I:1-I:C, II:1-II:C; linker I:N-II:N via Actinocin(9to1)) | did not show any greater sensitivity | no substantial difference |  |  |  |  |  |  |  |  |  |  |  |  |  |  |
| CC[C@H](C)[C@@H]1NC(=O)CNC(=O)[C@@H]2Cc3c([nH]c4cc(O)ccc34)[S+]([O-])C[C@@H](NC(=O)CNC1=O)C(=O)N[C@@H](CC(N)=O)C(=O)N1C[C@H](O)C[C@H]1C(=O)N[C@@H]([C@@H](C)[C@@H](O)CO)C(=O)N2 (stereo in doubt) [α-Amanitin] |  |  | ~1.0 | complete cell death | restored their resistance | significantly higher levels of cell-killing effect | 10 | complete cell death | ~0.1 (≈ 0.109 µM) | 8 | no significant changes | markedly sensitized | significantly enhanced cell-killing effects | no notable effects | specifically bound | toxic to liver |
